# Results as given in PubChem BioAssay AID292 (DTP/NCI, 2004).
# Several values for one entry are separate records, joined by “and”; a condition that tells them apart may be missing. Equal values may be shown once. Inconclusive results and toxic doses are left out.
# Tested on: B6C3F1 mice, ip Sarcoma M5076, median survival T/C
# Test: NCI In Vivo Anticancer Drug Screen. Data for tumor model Sarcoma M5076 (intraperitoneal) in B6C3F1 mice
# Details: endpoint: median survival time, higher = longer survival
# Experimental: The antitumor activity of compounds was measured in mice bearing transplantable tumors. Survival or tumor size were measured and the results are expressed as the measurement made in the treated group (T) divided by the measurement made in the vehicle treated control group (C). The tumor model used in this assay is Sarcoma M5076 (intraperitoneal) in B6C3F1 mice
# [1] = dose: 50.0 mg/kg/injection, schedule: Q04DX004 (ip), vehicle: Klucel (hydroxypropylcellulose) (HPC)
# [2] = dose: 100.0 mg/kg/injection, schedule: Q04DX004 (ip), vehicle: Klucel (hydroxypropylcellulose) (HPC)
# [3] = dose: 200.0 mg/kg/injection, schedule: Q04DX004 (ip), vehicle: Klucel (hydroxypropylcellulose) (HPC)
# [4] = dose: 400.0 mg/kg/injection, schedule: Q04DX004 (ip), vehicle: Klucel (hydroxypropylcellulose) (HPC)
# [5] = dose: 800.0 mg/kg/injection, schedule: Q04DX004 (ip), vehicle: Klucel (hydroxypropylcellulose) (HPC)
# [6] = dose: 37.5 mg/kg/injection, schedule: Q04DX004 (ip), vehicle: saline with Tween-80
# [7] = dose: 75.0 mg/kg/injection, schedule: Q04DX004 (ip), vehicle: saline with Tween-80
# [8] = dose: 150.0 mg/kg/injection, schedule: Q04DX004 (ip), vehicle: saline with Tween-80
smiles,measurement,setting,value
N#CC1C(=O)NC(=O)C(C#N)C1CCc1ccccc1 (centres undefined),T/C,"dose: 50.0 mg/kg/injection, schedule: Q04DX004 (ip), vehicle: Klucel + Tween-80",105 % of control
same,T/C,"dose: 100.0 mg/kg/injection, schedule: Q04DX004 (ip), vehicle: Klucel + Tween-80",97 % of control
same,T/C,"dose: 200.0 mg/kg/injection, schedule: Q04DX004 (ip), vehicle: Klucel + Tween-80",105 % of control
CNC(=S)C#N,T/C,"dose: 12.5 mg/kg/injection, schedule: Q04DX004 (ip), vehicle: saline + Tween-80 + alcohol",90 % of control
same,T/C,"dose: 50.0 mg/kg/injection, schedule: Q04DX004 (ip), vehicle: saline + Tween-80 + alcohol",89 % of control
OC(C1CO1)C(O)C1CO1 (centres undefined),T/C,"dose: 1.0 mg/kg/injection, schedule: Q04DX005 (ip), vehicle: saline",123 % of control
same,T/C,"dose: 2.0 mg/kg/injection, schedule: Q04DX005 (ip), vehicle: saline",169 % of control
same,T/C,"dose: 4.0 mg/kg/injection, schedule: Q04DX005 (ip), vehicle: saline",287 % of control
same,T/C,"dose: 8.0 mg/kg/injection, schedule: Q04DX005 (ip), vehicle: saline",319 % of control
N#CC1C(=O)NC(=O)C(C#N)C1c1cccc(O)c1 (centres undefined),T/C,[1],95 % of control
same,T/C,[2],102 % of control
same,T/C,[3],99 % of control
same,T/C,[4],95 % of control
same,T/C,[5],109 % of control
NC(=O)c1oc([N+](=O)[O-])c(-c2ccccc2)c1-c1ccccc1,T/C,[6],98 % of control
same,T/C,[7],93 % of control
same,T/C,[8],94 % of control
same,T/C,"dose: 300.0 mg/kg/injection, schedule: Q04DX004 (ip), vehicle: saline with Tween-80",89 % of control
COc1c(C=O)c2c(c(OC)c1OC)-c1ccc(OC)c(=O)cc1[C@@H](NC(C)=O)CC2,T/C,"dose: 3.75 mg/kg/injection, schedule: Q04DX004 (ip), vehicle: Klucel (hydroxypropylcellulose) (HPC)",118 % of control
same,T/C,"dose: 7.5 mg/kg/injection, schedule: Q04DX004 (ip), vehicle: Klucel (hydroxypropylcellulose) (HPC)",118 % of control
C=CC(=O)OCCOCN(COCCOC(=O)C=C)c1nc(N(COCCOC(=O)C=C)COCCOC(=O)C=C)nc(N(COCCOC(=O)C=C)COCCOC(=O)C=C)n1,T/C,"dose: 18.75 mg/kg/injection, schedule: Q04DX004 (ip), vehicle: saline with Tween-80",103 % of control
same,T/C,[6],100 % of control
same,T/C,[7],110 % of control
same,T/C,[8],104 % of control
N[C@@H](C[C@H]1CCC(=O)[C@@H]2O[C@H]12)C(=O)O,T/C,"dose: 50.0 mg/kg/injection, schedule: Q04DX004 (ip), vehicle: saline",97 % of control
same,T/C,"dose: 100.0 mg/kg/injection, schedule: Q04DX004 (ip), vehicle: saline",106 % of control
same,T/C,"dose: 200.0 mg/kg/injection, schedule: Q04DX004 (ip), vehicle: saline",117 % of control
same,T/C,"dose: 400.0 mg/kg/injection, schedule: Q04DX004 (ip), vehicle: saline",115 % of control
O=C1C=CC2OC(c3ccccc3)C(O)C2O1 (centres undefined),T/C,"dose: 6.25 mg/kg/injection, schedule: Q04DX004 (ip), vehicle: DMSO",105 % of control
same,T/C,"dose: 12.5 mg/kg/injection, schedule: Q04DX004 (ip), vehicle: DMSO",107 % of control
same,T/C,"dose: 25.0 mg/kg/injection, schedule: Q04DX004 (ip), vehicle: DMSO",112 % of control
same,T/C,"dose: 50.0 mg/kg/injection, schedule: Q04DX004 (ip), vehicle: DMSO",107 % of control
Nc1c(/C=C/c2cc3cc(C4=NCCN4)ccc3o2)[nH]c2cc(C3=NCCN3)ccc12,T/C,"dose: 6.25 mg/kg/injection, schedule: Q04DX004 (ip), vehicle: Klucel (hydroxypropylcellulose) (HPC)",107 % of control
same,T/C,"dose: 12.5 mg/kg/injection, schedule: Q04DX004 (ip), vehicle: Klucel (hydroxypropylcellulose) (HPC)",106 % of control
same,T/C,"dose: 25.0 mg/kg/injection, schedule: Q04DX004 (ip), vehicle: Klucel (hydroxypropylcellulose) (HPC)",104 % of control
CC1C=NNC1=O (centres undefined),T/C,[1],103 % of control
same,T/C,[2],101 % of control
same,T/C,[3],121 % of control
same,T/C,[4],102 % of control
same,T/C,[5],112 % of control
NC(=O)c1[nH]cnc1O,T/C,"dose: 50.0 mg/kg/injection, schedule: Q04DX004 (ip), vehicle: saline with Tween-80",102 % of control
same,T/C,"dose: 100.0 mg/kg/injection, schedule: Q04DX004 (ip), vehicle: saline with Tween-80",101 % of control and 105 % of control
same,T/C,"dose: 200.0 mg/kg/injection, schedule: Q04DX004 (ip), vehicle: saline with Tween-80",100 % of control and 105 % of control
same,T/C,"dose: 400.0 mg/kg/injection, schedule: Q04DX004 (ip), vehicle: saline with Tween-80",118 % of control
